Reference: patent publication US11890288B2, “Sulfonamide or sulfinamide compound having effect of inducing BRD4 protein degradation and pharmaceutical use thereof” (MITSUBISHI TANABE PHARMA CORPORATION, priority 2020, dated 2024)
Marks after values point to notes of the source that are not given here.

Legend:
[1] = tested on: human chronic myeloid leukemia K562 cell; experiment: Cytotoxic action on K562 cells (WST-8, 96 hr); type: cell-based; conditions: K562, 96 hr
Experimental: (§1) The cytotoxic action of the compound of the present invention against human cancer cells was evaluated in vitro. In this experiment, (+)-JQ1 (Nature volume 468, pages 1067-1073 (23 Dec. 2010)) known to have an inhibitory activity on the binding of BRD4 protein and a ligand therefor was used as a positive control drug. Respective cells were suspended in 10% FBS/RPMI1640, seeded in a 96 well plate and cultured at 5% CO2, 37° C. overnight. A test compound dissolved in DMSO was diluted with 10% FBS/RPMI1640 and added and the cells were further cultured for 96 hr. After culturing, the viable cell number was measured using a cell number measurement WST-8 kit (Kishida Chemical Co., Ltd.). As a control, the measurement was performed under conditions free of the test compound. The cytotoxic activity of the compound of the present invention against human prostate cancer LNCaP cells is shown in IC50 value in Table 1. The IC50 value is a concentration of the compound showing 50% cell survival rate when the cell survival rate thereof under compound untreated condition is 100%. It was calculated from the straight line connecting the cell survival rate at two points enclosing the 50% cell survival rate and the compound concentration. […]

[2] = tested on: human acute myeloid leukemia MV-4-11 cell transplanted mouse; experiment: Antitumor effect of 1 week intermittent administration to MV-4-11 cell transplanted mouse (tail vein, days 1 and 8); type: in vivo; conditions: tumor weight on day 15
Experimental: The in vivo antitumor effect of the compound of the present invention was studied using human acute myeloid leukemia MV-4-11 cell transplanted mouse. MV-4-11 cells were subcutaneously transplanted into the inguinal region of male, 6-week-old BALB/c nude mouse (5×10^6 cells/mouse). The compound of the present invention was administered into the tail vein on days 1 and 8 from the time point when the assumed tumor volume determined from ½ab^2 (a is major axis and b is minor axis of tumor) reached about 200 mm^3 (day 1). The control group was administered with a solvent, 10% Kolliphor ELP/5% ethanol/85% saline solution. On day 15, the tumor was isolated, the weight was measured, and the tumor growth inhibitory rate IR (%) was calculated by the following formula. tumor growth inhibitory rate IR (%)={1−(average tumor weight of administration group/average tumor weight of nonadministration control group)}×100(%)

[3] = tested on: human non-small cell lung cancer NCI-H2126 cell; experiment: Cytotoxic action on NCI-H2126 cells (WST-8, 96 hr); type: cell-based; conditions: NCI-H2126, 96 hr
Experimental: as §1

[4] = tested on: human ovarian cancer A2780 cell; experiment: Cytotoxic action on A2780 cells (WST-8, 96 hr); type: cell-based; conditions: A2780, 96 hr
Experimental: as §1

[5] = tested on: human large cell lung cancer NCI-H460 cell; experiment: Cytotoxic action on NCI-H460 cells (WST-8, 96 hr); type: cell-based; conditions: NCI-H460, 96 hr
Experimental: as §1

BRD4 protein = BRD4 protein (Homo sapiens (Human), UniProt O60885); experiment: Inhibitory action on binding of BRD4 protein and acetylated histone H4 (TR-FRET); conditions: BRD4-1 (GST) and acetylated histone H4 peptide, 3 hr
Experimental: The inhibitory action of the compound of the present invention on the binding of BRD4 protein and a ligand thereof (acetylated histone H4) was evaluated by the time-resolved fluorescence resonance energy transfer (TR-FRET) method using EPIgeneous™ Binding Domain Kit A (Cisbio), BRD4-1 (GST) (Reaction Biology Corp) and [Lys(Ac)5/8/12/16]-Histone H4(1-21)-GGK (Biotin) (Eurogentec). In this experiment, (+)-JQ1 (Nature volume 468, pages 1067-1073 (23 Dec. 2010)) known to have an inhibitory activity on the binding of BRD4 protein and acetylated histone H4 therefor was used as a positive control drug. A test compound dissolved in DMSO was diluted with attached Diluent Buffer, added to a 384 well white plate, and BRD4-1 (GST) and [Lys(Ac)5/8/12/16]-Histone H4(1-21)-GGK (Biotin) were further added. Thereafter, Streptavidin-d2 conjugate and Anti-GST-Eu^3+ Cryptate Conjugate were added and the cells were incubated at room temperature for 3 hr. The binding amount of the BRD4 protein and acetylated histone H4 was measured as the fluorescence intensity (excitation: 314 nm/emission: 620 nm and excitation: 314 nm/emission: 665 nm). […] It was calculated from the straight line connecting the degradation rate at two points enclosing the 50% fluorescence intensity and the compound concentration.

COC(=O)C[C@@H]1N=C(c2ccc(-c3ccc(C(=O)NCc4ccc(S(=O)(=O)Nc5ccc(C)c6c(C#N)c[nH]c56)cc4)cc3)cc2)c2c(sc(C)c2C)-n2c(C)nnc21 [Example 1, methyl [(6S)-4-{4′-[({4-[(3-cyano-4-methyl-1H-indol-7-yl)sulfamoyl]phenyl}methyl)carbamoyl][1,1′-biphenyl]-4-yl}-2,3,9-trimethyl-6H-thieno[3,2-f][1,2,4]triazolo[4,3-a][1,4]diazepin-6-yl]acetate]
IC50 [1]: 1.7 nM
tumor growth inhibitory rate ([2]; 4 mg/kg/day): 56** %
tumor growth inhibitory rate ([2]; 12.5 mg/kg/day): 92** %
IC50 [3]: 6.6 nM
IC50 [4]: 0.19 nM
IC50 [5]: 28 nM
IC50 (BRD4 protein): 29 nM
